Measured values: US12594265B2, “Methods and compositions for inhibition of STAT3” (Ohio State Innovation Foundation, priority 2017, dated 2026)
Marks after values point to notes of the source that are not given here.

How the values were obtained:
[1] = test system: splenocytes from naïve TCR transgenic mice; test: Cellular toxicity, trypan blue exclusion assay; type: cell-based; details: 24 h, 48 h, 72 h; at the doses showing significant suppression of IL-17 production
Procedure: In vitro toxicity evaluation of new STAT3 prodrugs. Cellular toxicity testing was carried out using a trypan blue exclusion assay as described herein. FIGS. 6A-6C show representative data for cell viability after treatment with DMSO or the indicated concentration of the indicated representative prodrug at 24 h, 48 h, and 72 h post-treatment. The data were obtained using a trypan blue exclusion assay using splenocytes from naïve TCR transgenic mice that were cultured as described.

chronic EAE model of MS = test: Chronic EAE model of MS (MOG-immunized B6 mice); type: in vivo
Procedure: (§1) EAE Induction. Immunization: 8-10 week old B6/WT or SJL/WT mice were s.c. injected over four sites in the flank with 200 μg MOG 35-55 or […] (CS bio) in an emulsion with CFA (Difco). 200 ng pertussis toxin (List) per mouse in PBS was injected i.p. at the time of immunization and 48 h later. Adoptive transfer: Splenocytes were isolated from naïve 5-10-week-old Vα2.3/Vβ8.2 TCR transgenic mice and activated with 10 μg/ml of MBP Ac1-11 with or without rmIL-6 in 24-well plates at […] with irradiated B10.PL splenocytes (6×10^8 cells/well). After 72 hours, the cells were washed with PBS and 8×10^6 were injected i.p. into naïve B10.PL mice. Evaluation. The mice were evaluated daily for clinical signs of EAE. Mice were scored on scale of 0 to 6:0, no clinical disease; 1, limp/flaccid tail; 2, moderate hind limb weakness; 3. severe hind limb weakness; 4. complete hind limb paralysis; 5 quadriplegia or premoribund state; and 6, death.
The in vivo efficacy of LLL12b was also evaluated in chronic EAE model of MS in immunized B6 mice by treating EAE mice with […] of LLL12b for 7 days after disease onset. FIGS. 8A-8B show representative data for the effect of a representative disclosed compound, LLL12b, for suppression of EAE development in a chronic EAE model of MS. Briefly, naïve WT/B6 mice were immunized with […].

[2] = test system: adoptively transferred EAE; test: Adoptively transferred EAE model of MS (B10.PL mice); type: in vivo
Procedure: as §1
The in vivo efficacy of LLL12b was evaluated in adoptively transferred EAE model by treating EAE mice with […] of LLL12b for 7 days after disease onset. FIGS. 9A-9C show representative data for the effect of a representative disclosed compound, LLL12b, on suppression of EAE development in an adoptive transfer EAE model of MS. […] The mice were then treated with either DMSO or a representative disclosed compound, LLL12b, (10 mg/kg) by daily intraperitoneal for 7 days. […] The summary of all four independent experiments was shown below in Table 1.
EAE was induced via adoptive transfer of activated myelin-specific CD4 T cells from Vα2.3/Vβ8.2 TCR transgenic mice into B10.PL mice. LLL12b or DNSO (vehicle control) was injected i.p. into mice daily for 7 days, starting when 70% of the mice developed clinical EAE. Mice were monitored for clinical signeds of EAE. Assessment of clinical EAE includes the incidence of EAE, the mean peak clinical scores±SEM and the area under the curve. The results of three independent experiments are shown. ^aP<0.01, comparing incidence of EAE in LLL12b group versus DMSO group. ^bP<0.01, comparing mean peak clinical score of LLL12b group versus DMSO group. ^cP<0.05, comparing area under the curve of LLL12b group versus DMSO group.
LLL12b treatment suppresses the production of inflammatory cytokines in myelin-specific CD4 T cells and promotes Treg development in vivo. The ex vivo analysis to determine the T effector function of myelin-specific CD4 T cells as well as Treg development in treated mice was carried. FIGS. 10A-10C show representative data for the effect of treatment with a representative disclosed compound. LLL12b, on Treg development in an adoptively transferred EAE model of MS. Briefly, splenocytes from were isolated from either a LLL12b- or DMSO-treated group as indicated and analysed.

[3] = test system: relapsing-remitting EAE model of MS; test: Relapsing-remitting EAE model of MS (PLP-immunized SJL mice); type: in vivo; details: 10 mg/kg daily, days 9-15 or days 36-42
Procedure: as §1
SJL mice develop relapsing-remitting disease after immunization with PLP 139-151, which resembles human relapsing-remitting MS, the major subtype of MS that affects more than 85% of MS patients. […]

[4] = test system: pSTAT3 in CD4 T cells from MS patients; test: Phosphorylation of STAT3 in CD4 T cells from MS patients (phospho flow cytometry); type: cell-based, human; details: 0.25 μM; αhCD3 plus rhIL-6 for 30 minutes; 6 patients
Procedure: FIGS. 13A-13C show representative data for the effect of LLL12b treatment on the phosphorylation status of STAT3 in CD4 T-cells obtained from MS patients. Briefly, PBMCs from treatment-naïve MS patients were activated with αhCD3 plus rhIL-6 for 30 minutes, in the presence of 0.25 μM of LLL12b or vehicle control (DMSO). pSTAT3 was determined by phospho flow cytometry. Cells were gated on CD4+ cells.
LLL12b inhibits the phosphorylation of STAT3 in CD4 T cells from MS patients. To determine whether LLL12b suppresses the phosphorylation of STAT3 in human CD4 T cells, PBMCs from 6 treatment-naïve MS patients were activated with αhCD3 plus rhIL-6 for 30 minutes, in the presence of 0.25 μM of LLL12b or vehicle control (DMSO). pSTAT3 was determined by phospho flow cytometry.

## CN(C)C(=O)Oc1cccc2c1C(=O)c1cccc(S(N)(=O)=O)c1C2=O [LLL12b]
[1]
  cellular toxicity (cell viability, trypan blue exclusion): minimal cellular toxicity
Chronic EAE model of MS; 10 mg/kg for 7 days, day 14 to day 20, after disease onset
  EAE development (mean clinical score): significantly suppresses EAE development
Chronic EAE model of MS; ex vivo, activated with MOG 35-55 for 3 days
  IL-17 production of splenocytes from treated mice (ELISA): decreased IL-17 production
[2]; 10 mg/kg daily intraperitoneal for 7 days after disease onset
  EAE development (in words): significantly suppresses EAE development
[2]; ex vivo flow cytometry
  level of CD25+FoxP3+CD4+ Treg cells in splenocytes of treated animals: statistically significant increase
[2]; ex vivo, activated with MBP Ac1-11 for 3 days
  production of IFNγ by splenocytes of treated animals (ELISA): notable decrease
[2]; i.p. daily for 7 days
  Area under the curve (clinical score): 22.12 ± 2.09 ^c
[2]; i.p. daily for 7 days, starting when 70% of the mice developed clinical EAE
  Incidence of EAE (%): 26/34 (76%) ^a
[2]; i.p. daily for 7 days, ± SEM
  Mean peak clinical score: 2.03 ± 0.27 ^b
[3]
  acute and relapsing EAE (mean clinical score): significantly suppresses acute and relapsing EAE
[4]
  pSTAT3 expression in CD4 T cells from MS patients: significantly suppresses pSTAT3 expression
